Results reported in patent publication US11046681B2, “Substituted piperidines for the treatment of cancer” (LES LABORATOIRES SERVIER, priority 2016, dated 2021).

Target: His-His-USP7 (aa208-560, [C315A]) (Homo sapiens (Human), UniProt Q93009, C315A)
Experiment: Evaluation of the inhibition of USP7 by Fluorescence Intensity (FLINT) readings
Assay type: biochemical
Conditions: 0.25 nM USP7, 60 minutes at 30° C. preincubation, 500 nM Ubiquitin-Rhodamine-110 substrate, 50% reduction in kinetic rate
Description: USP7 activity was measured using Rhodamine-110 c-terminal labelled Ubiquitin as a substrate (Viva Biosciences). Incubation with USP7 results in the release of Rhodamine-110 leading to an increase in fluorescence which can be used in the continuous measurement of USP7 activity.
The USP7 reactions were performed in a 50 μL volume, in 384 well black solid low binding plates (Corning #3575). The reaction buffer consisted of 100 mM Bicine pH 8.0, 0.01% TritonX100, 1 mM TCEP, and 10% DMSO.
0.25 nM His-His-USP7 (aa208-560, [C315A]) was incubated with compound (final concentration 10% DMSO) for 60 minutes at 30° C. The reaction was then initiated by the addition of 500 nM Ubiquitin-Rhodamine-110 substrate and the plate read every 3 minutes for 21 minutes to measure the release of Rhodamine-110. Fluorescence Intensity (FLINT) readings were measured using a […] Neo plate reader (Ex.485 nm, Em.535 nm).
The inhibition of increasing doses of compound was expressed as a percentage reduction in kinetic rate compared to the kinetic rates established between ‘DMSO only’ and ‘total inhibition’ controls (no USP7). The inhibitory concentrations that gave a 50% reduction in kinetic rate (IC50) were determined, from 11-point dose response curves, in XL-Fit using a 4-Parameter Logistic Model (Sigmoidal Dose-Response Model).

His-His-USP7 (aa208-560, [C315A]), sequence (Q93009 208-560 C315A): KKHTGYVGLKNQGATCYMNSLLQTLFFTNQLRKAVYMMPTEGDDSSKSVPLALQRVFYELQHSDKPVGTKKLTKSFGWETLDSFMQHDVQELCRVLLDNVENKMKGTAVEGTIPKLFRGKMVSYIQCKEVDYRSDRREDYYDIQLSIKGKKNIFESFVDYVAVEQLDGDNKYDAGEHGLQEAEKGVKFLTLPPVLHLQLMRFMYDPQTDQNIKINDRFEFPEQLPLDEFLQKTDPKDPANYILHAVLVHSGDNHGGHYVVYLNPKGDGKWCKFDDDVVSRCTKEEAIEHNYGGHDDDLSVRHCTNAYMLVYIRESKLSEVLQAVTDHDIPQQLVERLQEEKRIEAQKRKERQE

| SMILES | IC50 [nM] |
| --- | --- |
| CN1CC[C@@H](C(=O)N2CCC(O)(Cn3cnc4c(ccn4-c4ccc(F)cc4)c3=O)CC2)[C@H](c2ccccc2)C1 [EXAMPLE 141, 7-(4-fluorophenyl)-3-[[4-hydroxy-1-[(3R,4R)-1-methyl-3-phenyl-piperidine-4-carbonyl]-4-piperidyl]methyl]pyrrolo[2,3-d]pyrimidin-4-one] | 74.8 |
| O=C([C@@H]1CCNC[C@H]1c1ccccc1)N1CCC(O)(Cn2cnc3c(ccn3-c3ccc(Cl)cc3)c2=O)CC1 [EXAMPLE 143, 7-(4-chlorophenyl)-3-[[4-hydroxy-1-[(3R,4R)-3-phenylpiperidine-4-carbonyl]-4-piperidyl]methyl]pyrrolo[2,3-d]pyrimidin-4-one] | 41.2 |
| CC(C)(C)OC(=O)N1CC[C@@H](C(=O)N2CCC(O)(Cn3cnc4c(ccn4-c4ccccn4)c3=O)CC2)[C@H](c2ccccc2)C1 [EXAMPLE 15, tert-butyl (3R,4R)-4-[4-hydroxy-4-[[4-oxo-7-(2-pyridyl)pyrrolo[2,3-d]pyrimidin-3-yl]methyl]piperidine-1-carbonyl]-3-phenyl-piperidine-1-carboxylate] | 274 |
| COc1ccc(-n2ncc3c(=O)n(CC4(O)CCN(C(=O)[C@@H]5CCN(C(=O)OC(C)(C)C)C[C@H]5c5ccccc5)CC4)cnc32)cc1 [EXAMPLE 44, tert-butyl (3R,4R)-4-[4-hydroxy-4-[[1-(4-methoxyphenyl)-4-oxo-pyrazolo[3,4-d]pyrimidin-5-yl]methyl]piperidine-1-carbonyl]-3-phenyl-piperidine-1-carboxylate] | 61.5 |
| CC(C)(C)OC(=O)N1CC[C@@H](C(=O)N2CCC(O)(Cn3cnc4c(cnn4-c4ccc5c(c4)OCCO5)c3=O)CC2)[C@H](c2ccccc2)C1 [EXAMPLE 64, tert-butyl (3R,4R)-4-[4-[[1-(2,3-dihydro-1,4-benzodioxin-6-yl)-4-oxo-pyrazolo[3,4-d]pyrimidin-5-yl]methyl]-4-hydroxy-piperidine-1-carbonyl]-3-phenyl-piperidine-1-carboxylate] | 68.7 |
| CC(=O)N1CC[C@@H](C(=O)N2CCC(O)(Cn3cnc4c(ccn4-c4ccccc4)c3=O)CC2)[C@H](c2ccccc2)C1 [EXAMPLE 147, 3-[[1-[(3R,4R)-1-acetyl-3-phenyl-piperidine-4-carbonyl]-4-hydroxy-4-piperidyl]methyl]-7-phenyl-pyrrolo[2,3-d]pyrimidin-4-one] | 406 |
| O=C([C@@H]1CCN(CC(F)(F)F)C[C@H]1c1ccccc1)N1CCC(O)(Cn2cnc3[nH]ccc3c2=O)CC1 [EXAMPLE 117, 3-[[4-hydroxy-1-[(3R,4R)-3-phenyl-1-(2,2,2-trifluoroethyl)piperidine-4-carbonyl]-4-piperidyl]methyl]-7H-pyrrolo[2,3-d]pyrimidin-4-one] | 1200 |
| CC(C)C(=O)N1CC[C@@H](C(=O)N2CCC(O)(Cn3cnc4c(ccn4-c4ccccc4)c3=O)CC2)[C@H](c2ccccc2)C1 [EXAMPLE 177, 3-[[4-hydroxy-1-[(3R,4R)-1-(2-methylpropanoyl)-3-phenyl-piperidine-4-carbonyl]-4-piperidyl]methyl]-7-phenyl-pyrrolo[2,3-d]pyrimidin-4-one] | 103 |
| COc1cc(-n2ccc3c(=O)n(CC4(O)CCN(C(=O)[C@@H]5CCN(C(=O)OC(C)(C)C)C[C@H]5c5ccccc5)CC4)cnc32)ccc1F [EXAMPLE 57, tert-butyl (3R,4R)-4-[4-[[7-(4-fluoro-3-methoxy-phenyl)-4-oxo-pyrrolo[2,3-d]pyrimidin-3-yl]methyl]-4-hydroxy-piperidine-1-carbonyl]-3-phenyl-piperidine-1-carboxylate] | 70.2 |
| CC(=O)N1CC[C@@H](C(=O)N2CCC(O)(Cn3cnc4c(ccn4-c4ccc(F)cc4)c3=O)CC2)[C@H](c2ccccc2)C1 [EXAMPLE 166, 3-[[1-[(3R,4R)-1-acetyl-3-phenyl-piperidine-4-carbonyl]-4-hydroxy-4-piperidyl]methyl]-7-(4-fluorophenyl)pyrrolo[2,3-d]pyrimidin-4-one] | 102 |
| CC(C)(C)C(=O)N1CC[C@@H](C(=O)N2CCC(O)(Cn3cnc4c(ccn4-c4ccccc4)c3=O)CC2)[C@H](c2ccccc2)C1 [EXAMPLE 184, 3-[[1-[(3R,4R)-1-(2,2-dimethylpropanoyl)-3-phenyl-piperidine-4-carbonyl]-4-hydroxy-4-piperidyl]methyl]-7-phenyl-pyrrolo[2,3-d]pyrimidin-4-one] | 83 |
| COc1ccc(-n2ccc3c(=O)n(CC4(O)CCN(C(=O)[C@@H]5CCN(C(C)=O)C[C@H]5c5ccccc5)CC4)cnc32)cc1 [EXAMPLE 178, 3-[[1-[(3R,4R)-1-acetyl-3-phenyl-piperidine-4-carbonyl]-4-hydroxy-4-piperidyl]methyl]-7-(4-methoxyphenyl)pyrrolo[2,3-d]pyrimidin-4-one] | 96.1 |
| O=C([C@@H]1CCNC[C@H]1c1ccccc1)N1CCC(O)(Cn2cnc3c(ccn3-c3ccccn3)c2=O)CC1 [EXAMPLE 104, 3-[[4-hydroxy-1-[(3R,4R)-3-phenylpiperidine-4-carbonyl]-4-piperidyl]methyl]-7-(2-pyridyl)pyrrolo[2,3-d]pyrimidin-4-one] | 394 |
| COc1ccc(-n2ncc3c(=O)n(CC4(O)CCN(C(=O)[C@@H]5CC[N+](C)(C)C[C@H]5c5ccccc5)CC4)cnc32)cc1 [EXAMPLE 169, 5-[[1-[(3R,4R)-1,1-dimethyl-3-phenyl-piperidin-1-ium-4-carbonyl]-4-hydroxy-4-piperidyl]methyl]-1-(4-methoxyphenyl)pyrazolo[3,4-d]pyrimidin-4-one] | 860 |
| CN1CC[C@@H](C(=O)N2CCC(O)(Cn3cnc4c(ccn4-c4ccccc4)c3=O)CC2)[C@H](c2ccccc2)C1 [EXAMPLE 121, 3-[[4-hydroxy-1-[(3R,4R)-1-methyl-3-phenyl-piperidine-4-carbonyl]-4-piperidyl]methyl]-7-phenyl-pyrrolo[2,3-d]pyrimidin-4-one] | 140 |
| O=C([C@@H]1CCNC[C@H]1c1ccccc1)N1CCC(O)(Cn2cnc3c(ccn3-c3cccc(Cl)c3)c2=O)CC1 [EXAMPLE 142, 7-(3-chlorophenyl)-3-[[4-hydroxy-1-[(3R,4R)-3-phenylpiperidine-4-carbonyl]-4-piperidyl]methyl]pyrrolo[2,3-d]pyrimidin-4-one] | 56.7 |
| COc1cc(-n2ccc3c(=O)n(CC4(O)CCN(C(=O)[C@@H]5CCNC[C@H]5c5ccccc5)CC4)cnc32)ccc1F [EXAMPLE 157, 7-(4-fluoro-3-methoxy-phenyl)-3-[[4-hydroxy-1-[(3R,4R)-3-phenylpiperidine-4-carbonyl]-4-piperidyl]methyl]pyrrolo[2,3-d]pyrimidin-4-one] | 39.3 |
| COc1cccc(-n2ccc3c(=O)n(CC4(O)CCN(C(=O)[C@@H]5CCNC[C@H]5c5ccccc5)CC4)cnc32)c1 [EXAMPLE 136, 3-[[4-hydroxy-1-[(3R,4R)-3-phenylpiperidine-4-carbonyl]-4-piperidyl]methyl]-7-(3-methoxyphenyl)pyrrolo[2,3-d]pyrimidin-4-one] | 48.6 |
| CC(=O)N1CC[C@@H](C(=O)N2CCC(O)(Cn3cnc4c(ccn4-c4cccc(Cl)c4)c3=O)CC2)[C@H](c2ccccc2)C1 [EXAMPLE 180, 3-[[1-[(3R,4R)-1-acetyl-3-phenyl-piperidine-4-carbonyl]-4-hydroxy-4-piperidyl]methyl]-7-(3-chlorophenyl)pyrrolo[2,3-d]pyrimidin-4-one] | 89 |
| CC(C)(C)OC(=O)N1CC[C@@H](C(=O)N2CCC(O)(Cn3cnc4sccc4c3=O)CC2)[C@H](c2ccccc2)C1 [EXAMPLE 2, tert-butyl (3R,4R)-4-[4-hydroxy-4-[(4-oxothieno[2,3-d]pyrimidin-3-yl)methyl]piperidine-1-carbonyl]-3-phenyl-piperidine-1-carboxylate] | 128 |
| CN1CC[C@@H](C(=O)N2CCC(O)(Cn3cnc4c(ccn4-c4cccc(Cl)c4)c3=O)CC2)[C@H](c2ccccc2)C1 [EXAMPLE 152, 7-(3-chlorophenyl)-3-[[4-hydroxy-1-[(3R,4R)-1-methyl-3-phenyl-piperidine-4-carbonyl]-4-piperidyl]methyl]pyrrolo[2,3-d]pyrimidin-4-one] | 64.8 |
| CC(=O)N1CC[C@@H](C(=O)N2CCC(O)(Cn3cnc4c(ccn4-c4ccc(Cl)cc4)c3=O)CC2)[C@H](c2ccccc2)C1 [EXAMPLE 181, 3-[[1-[(3R,4R)-1-acetyl-3-phenyl-piperidine-4-carbonyl]-4-hydroxy-4-piperidyl]methyl]-7-(4-chlorophenyl)pyrrolo[2,3-d]pyrimidin-4-one] | 74.2 |
| O=C([C@@H]1CCNC[C@H]1c1ccccc1)N1CCC(O)(Cn2cnc3c(cnn3-c3ccccc3)c2=O)CC1 [EXAMPLE 103, 5-[[4-hydroxy-1-[(3R,4R)-3-phenylpiperidine-4-carbonyl]-4-piperidyl]methyl]-1-phenyl-pyrazolo[3,4-d]pyrimidin-4-one] | 52.9 |
| COc1cccc(-n2ccc3c(=O)n(CC4(O)CCN(C(=O)[C@@H]5CCN(C(C)=O)C[C@H]5c5ccccc5)CC4)cnc32)c1 [EXAMPLE 179, 3-[[1-[(3R,4R)-1-acetyl-3-phenyl-piperidine-4-carbonyl]-4-hydroxy-4-piperidyl]methyl]-7-(3-methoxyphenyl)pyrrolo[2,3-d]pyrimidin-4-one] | 88.4 |
